Test results: PMC12811501, “A plant-derived antimicrobial peptide with multiple mechanisms of action exhibiting antibacterial and antibiofilm activities comparable to or superior to polymyxin B” (Current Research in Microbial Sciences, 2025)
Values after ≈ are worked out from the molar mass of the structure shown. Read-outs that look alike come from different tables or passages of the source. Residues, ends and D or L forms follow the SMILES beside them. No end group written: not given here.

Key:
E. coli = assay: microbe, parasite or virus in culture; settings: for FBC-A: (MBC of Drug A in combination)/(MBC of Drug A alone), combination with NCR169C17–38 (Drug B), checkerboard; for FBC-A / FBC-B / FBC / Action / FBC-A (µM): concentration of Drug A for the indicated action / FBC-B (µM): concentration of Drug B for the indicated action: E. coli; for FBC-A / FBC-A (µM): concentration of Drug A for the indicated action: 3 h 37 °C; for FBC-B: (MBC of NCR169C17–38 in combination)/(MBC alone), value refers to NCR169C17–38 (Drug B) combined with the Drug A; for MBC: Escherichia coli, read-out: Drug A MBC; for FBC: FBC index = FBC-A + FBC-B, Drug A combined with NCR169C17–38; for Action: interaction of Drug A with NCR169C17–38 by FBC index; for FBC-A (µM): concentration of Drug A for the indicated action / FBC-B (µM): concentration of Drug B for the indicated action: value in brackets; for FBC-A (µM): concentration of Drug A for the indicated action: Drug A in combination with NCR169C17–38, checkerboard; for FBC-B (µM): concentration of Drug B for the indicated action: concentration of NCR169C17–38 (Drug B) combined with Drug A
Method: Streptomycin was tested at concentrations ranging from 25 μM to 0.4 μM, meropenem from 200 μM to 3.1 μM, and polymyxin B from 6.3 μM to 0.1 μM. NCR335N1–19 was tested in a concentration range from 3.1 μM to 0.05 μM, while NCR335C13–33 from 12.5 μM to 0.2 μM. […] The initial E. coli density in each well were adjusted to OD600 = 0.01 corresponding to ∼10^6 bacteria/ml. […] The effectiveness of combination treatments was measured using the fractional bactericidal concentration (FBC) index, which is a metric used to assess the interaction between antimicrobial agents, determining whether their combined effect is synergistic, additive, or antagonistic. First, the MBC values of polymyxin B, meropenem, streptomycin, NCR335N1–19, and NCR335C13–33 were determined in E. coli. Subsequently, their combinations with NCR169C17–38 were examined using the FBC index. FBC = FBCA + FBCB. FBCA = (MBCA in combination) / (MBCA alone); FBCB = (MBCB in combination) / (MBCB alone). Experiments were done in three biological replicates.
The use of multiple antimicrobial agents can simultaneously target different physiological pathways in microbial cells, reducing the likelihood of resistance development and increasing treatment efficacy. To explore this strategy, we assessed the combined antibacterial effects of the NCR169C17–38 peptide with several antibiotics - specifically polymyxin B, meropenem, and streptomycin - against E. coli. […] Combination treatments were then performed using the standard checkerboard titration method, with each agent co-administered with NCR169C17–38.

[1] = test system: Acinetobacter baumannii pre-formed biofilm; assay: microbe, parasite or virus in culture; type: cell-based; settings: for degradation of pre-formed biofilm: A. baumannii biofilm pre-formed 24 h, 24 h of treatment, Crystal Violet OD550; for MBC: A. baumannii biofilm pre-formed 24 h in MHB
Method: For the biofilm eradication assay the difference was at the beginning of the experiments when bacteria were pre-cultured for 24 h or 72 h in MHB with a starting OD600 = 0.01. Then bacterial suspensions were removed from the wells followed by washing three times with 200 µl of 1/2 MHB. Subsequently fresh 1/10 MHB was added to the wells containing the respective dilutions of NCR169C17–38, meropenem or polymixin B and the treatment lasted either 3 h or 24 h. Experiments were done in three biological replicates.
To assess whether the NCR169C17–38 peptide or the tested antibiotics could eradicate pre-formed biofilms, A. baumannii was first cultured in MHB for 24 h, then treated with NCR169C17–38, meropenem or polymyxin B for either 3 h or 24 h, using the same concentration range as in the previous experiment. Both bacterial survival within the pre-formed biofilm and the amount of residual biofilm were assessed. […] In contrast, neither of the two antibiotics completely eliminated the bacteria within the tested concentration range. […] This 24 h of treatment was repeated on mature biofilm (pre-formed for 72 h) and the results were very similar (Supplementary Fig. 1.).

Acinetobacter baumannii = assay: microbe, parasite or virus in culture; type: cell-based; settings: A. baumannii; for MBC: 24 h of treatment in MHB (method: 1/10 MHB), detected at the end of the biofilm inhibition test, read-out: MBC, Inhibition test after 24 h
Method: For the biofilm inhibition assay the antimicrobial activity test was done in 1/10 MHB using A. baumannii treated with the respective dilutions of NCR169C17–38, meropenem or polymixin B for 24 h. After taking the 5 μl samples at the end of the treatment and placed on LB agar to detect bacterial growth, the rest of the grown bacterial suspensions were discarded from the plate and the remaining biofilm on the walls of the plate was then washed three times with sterile water and stained using 1 % Crystal Violet (CV) for 15 min to visualize the produced biofilm. The non-adherent CV dye was then removed by washing with water three times. The plate was left for complete drying, then the biofilm-bound CV dye was dissolved in 200 µl of 30 % acetic-acid with shaking over 15 min. The absorbance was measured at OD550 using a HIDEX Plate Reader (Hidex Sense Microplate Reader with Plate Reader Software version 5064, Hidex, Finland). All measurements were repeated three times.
We examined the capacity of NCR169C17–38 to inhibit biofilm formation by Acinetobacter baumannii, a pathogen well known for its robust biofilm production and high level of antibiotic resistance. […] Additionally, at the end of the experiment we determined the quantity of the biofilm and thereby evaluated their ability to inhibit biofilm formation during culturing the bacteria in the presence of different concentrations of the agents (Fig. 1.A). We tested concentrations of NCR169C17–38 ranging from 25 μM to 0.4 μM, meropenem from 100 μM to 1.6 μM and polymyxin B from 3.1 μM to 0.05 μM.

[2] = type: physicochemical; settings: for solubility / visible turbidity upon peptide addition: pH 7.4

C[C@@H](O)[C@H]1C(=O)N2C(C(=O)O)=C(S[C@@H]3CN[C@H](C(=O)N(C)C)C3)[C@H](C)[C@H]12 [Meropenem]
FBC-A (E. coli): 0.25
FBC-B (E. coli): 0.25
MBC (E. coli; 3 h): 200 µM
FBC (E. coli): 0.5
Action (E. coli): Synergism (< 0.5: synergism)
FBC-A (µM): concentration of Drug A for the indicated action (E. coli): 50 µM
FBC-B (µM): concentration of Drug B for the indicated action (E. coli): 0.4 µM
degradation of pre-formed biofilm [1]: successful even at sub-MBC level
MBC ([1]; Acinetobacter baumannii, 3 h treatment (method: 1/10 MHB), read-out: MBC, Eradication test after 3 h): > 100 µM
MBC ([1]; Acinetobacter baumannii, 24 h treatment (method: 1/10 MHB), read-out: MBC, Eradication test after 24 h): > 100 µM
inhibition of biofilm formation (Crystal Violet, OD550) (Acinetobacter baumannii; 24 h treatment, NCR169C17–38 25-0.4 μM, meropenem 100-1.6 μM, polymyxin B 3.1-0.05 μM): remaining effective even at lower doses
MBC (Acinetobacter baumannii; Acinetobacter baumannii): 50 µM (≈ 19.2 µg/mL)

[H]/N=C(/N)N[C@H]1[C@H](O)[C@@H](O)[C@H](O[C@@H]2O[C@@H](C)[C@](O)(C=O)[C@H]2O[C@@H]2O[C@@H](CO)[C@H](O)[C@@H](O)[C@@H]2NC)[C@@H](N/C(N)=N\[H])[C@@H]1O [Streptomycin]
FBC-A (E. coli): 0.5
FBC-B (E. coli): 0.5
MBC (E. coli; 3 h): 3.12 µM
FBC (E. coli): 1
Action (E. coli): Additive (0.5 < FBC < 1.0: additive)
FBC-B (µM): concentration of Drug B for the indicated action (E. coli): 0.8 µM

Polymyxin B
FBC-A (E. coli): 0.125
FBC-B (E. coli): 0.25
Drug A MBC (E. coli; Drug A alone, E. coli ~10^6 bacteria/ml, MHB/PPB mixture, 3 h at 37 °C, plated on LB agar, three biological replicates): 0.8 µM
FBC (E. coli): 0.38
Action (E. coli): Synergism (< 0.5: synergism)
FBC-A (µM): concentration of Drug A for the indicated action (E. coli): 0.1 µM
FBC-B (µM): concentration of Drug B for the indicated action (E. coli): 0.4 µM
degradation of pre-formed biofilm [1]: required at least their MBC or higher concentrations
MBC ([1]; 3 h treatment (method: 1/10 MHB), read-out: MBC, Eradication test after 3 h): >3.2 µM
MBC ([1]; 24 h treatment (method: 1/10 MHB), read-out: MBC, Eradication test after 24 h): >3.2 µM
eradication of pre-formed biofilms at sub-MBC concentration ([1]; A. baumannii, as stated in the abstract): not observed
MBC (Acinetobacter baumannii): 0.8 µM

CC[C@H](C)[C@H](NC(=O)[C@@H]1CCCN1C(=O)[C@@H](NC(=O)[C@H](CS)NC(=O)[C@H](Cc1ccc(O)cc1)NC(=O)[C@H](CO)NC(=O)[C@H](CCCCN)NC(=O)[C@H](CCCNC(=N)N)NC(=O)[C@H](CS)NC(=O)[C@H](CCCNC(=N)N)NC(=O)[C@@H](NC(=O)[C@H](CC(N)=O)NC(=O)[C@H](C)NC(=O)[C@H](CCCNC(=N)N)NC(=O)[C@H](CCCNC(=N)N)NC(=O)[C@H](CC(C)C)NC(=O)[C@H](CCCCN)NC(=O)[C@@H]1CCCN1C(=O)[C@H](CS)NC(=O)[C@H](CC(=O)O)NC(=O)[C@@H](N)CCCCN)C(C)C)C(C)C)C(N)=O [NCR335C13–33] (H-KDCPKLRRANVRCRKSYCVPI-NH2; N-terminus and C-terminus assumed)
Drug A MBC (E. coli; 3 h): 12.5 µM
FBC-A (E. coli): 0.5
FBC-B (E. coli): 0.03
FBC (E. coli): 0.5
Action (E. coli): Synergism (< 0.5: synergism)
FBC-A (µM): concentration of Drug A for the indicated action (E. coli): 6.25 µM
FBC-B (µM): concentration of Drug B for the indicated action (E. coli): 0.048 µM

CC[C@H](C)[C@H](NC(=O)CNC(=O)[C@H](CS)NC(=O)[C@H](Cc1ccc(O)cc1)NC(=O)[C@H](CCCCN)NC(=O)[C@@H](NC(=O)[C@H](Cc1c[nH]cn1)NC(=O)CNC(=O)[C@@H](NC(=O)[C@H](CC(=O)O)NC(=O)[C@@H](N)CCC(=O)O)[C@@H](C)CC)[C@@H](C)CC)C(=O)N[C@H](C(=O)N[C@@H](CC(=O)O)C(=O)N[C@@H](CC(=O)O)C(=O)N[C@@H](CS)C(=O)N[C@@H](Cc1ccc(O)cc1)C(=O)N[C@@H](CCCCN)C(=O)N[C@@H](CO)C(=O)N[C@@H](CCCCN)C(=O)N[C@@H](CCCCN)C(=O)N1CCC[C@H]1C(=O)N[C@@H](CC(C)C)C(=O)N[C@@H](Cc1ccccc1)C(=O)N[C@@H](CCCCN)C(=O)N[C@H](C(=O)N[C@@H](Cc1c[nH]c2ccccc12)C(=O)N[C@@H](CCCCN)C(=O)N[C@@H](CS)C(=O)N[C@H](C(=O)N[C@@H](CCC(=O)O)C(=O)N[C@@H](CC(N)=O)C(=O)N[C@H](C(=O)N[C@@H](CS)C(=O)N[C@H](C(=O)N[C@@H](CC(C)C)C(=O)N[C@@H](Cc1c[nH]c2ccccc12)C(=O)N[C@@H](Cc1ccc(O)cc1)C(=O)N[C@@H](CCCCN)C(N)=O)C(C)C)C(C)C)C(C)C)[C@@H](C)CC)C(C)C [NCR169] (H-EDIGHIKYCGIVDDCYKSKKPLFKIWKCVENVCVLWYK-NH2)
solubility / visible turbidity ([2]; pH 5.8): eliminating visible turbidity
solubility / visible turbidity upon peptide addition [2]: visible white turbidity

RLNTTFRPLNFKMLRFWGQ-NH2 [NCR335N1–19]
Drug A MBC (E. coli; 3 h): 3.125 µM
FBC-A (E. coli): 0.5
FBC-B (E. coli): 0.01
FBC (E. coli): 0.5
Action (E. coli): Synergism (< 0.5: synergism)
FBC-A (µM): concentration of Drug A for the indicated action (E. coli): 1.6 µM

EDIGHIKYSGIVDDSYKSKKPLFKIWKSVENVSVLWYK-NH2 [NCR169-C9,15,28,33/S]
solubility / visible turbidity upon peptide addition [2]: no visible turbidity
